According to patent publication US20050113450A1, “Antibacterial agents” (priority 2002, published 2005):
Converted amounts (≈) assume the structure as drawn.

System: SA 9218
Assay: MIC by standard agar dilution method
Assay type: cell-based
Settings: Mueller Hinton agar, 10^4 to 10^5 cells per spot, incubated overnight at 35° C., lowest concentration that inhibits visible growth
Summary of the method: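 MIC read after overnight 35 °C incubation as lowest drug level preventing visible growth. Inoculum of roughly 10^4–10^5 cells per spot (0.5 McFarland, 1:20 in TSB) applied to Mueller Hinton agar containing serial 2-fold compound dilutions.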

SMILES	MIC	SA 9218 MIC
Cc1ccc(S(=O)(=O)Cc2ccc(C(=O)Nc3ccc(Br)cc3C(=O)O)cc2)cc1 [PHA-713411]	32 µg/mL (≈ 65.5 µM)	–
Cc1c(C(=O)Nc2ccc(Br)cc2C(=O)O)cccc1S(=O)(=O)N(C)c1ccc(Cl)cc1 [PHA-717196]	4 µg/mL (≈ 7.44 µM)	–
CC(=O)c1ccc(NC(=O)c2cccc(S(=O)(=O)N3CCc4cc(Cl)ccc43)c2)c(C(=O)O)c1 [PHA-719201]	2 µg/mL (≈ 4.01 µM)	–
Cc1c(C(=O)Nc2ccc(C#N)cc2C(=O)O)cccc1S(=O)(=O)N1CCc2cc(Cl)ccc21 [PHA-728844]	0.25 µg/mL (≈ 0.504 µM)	–
COc1c(C(=O)Nc2ccc(Br)cc2C(=O)O)cccc1S(=O)(=O)N(C)c1ccc(Cl)cc1 [PHA-735753]	16 µg/mL (≈ 28.9 µM)	–
CCCCCC(=O)NCc1ccc(C(=O)Nc2ccc(C#N)cc2C(=O)O)cc1S(=O)(=O)N1CCc2ccccc21 [PHA-738531]	64 µg/mL (≈ 111 µM)	–
CCCCCCCCCCC(=O)NCc1ccc(C(=O)Nc2ccc(C#N)cc2C(=O)O)cc1S(=O)(=O)N1CCc2ccccc21 [PHA-738532]	32 µg/mL (≈ 49.6 µM)	–
CC(=O)NCc1ccc(C(=O)Nc2ccc(C#N)cc2C(=O)O)cc1S(=O)(=O)N1CCc2ccccc21 [PHA-740499]	128 µg/mL (≈ 247 µM)	–
N#Cc1ccc(NC(=O)c2ccc(N=[N+]=[N-])c(I)c2)c(C(=O)O)c1 [PHA-748361]	8 µg/mL (≈ 18.5 µM)	–
CCCC(CCC)S(=O)(=O)c1ccc(C(=O)Nc2ccc(Cl)cc2C(=O)O)cc1NO.Cl [PNU-283601A]	32 µg/mL	–
CCCN(CCC)S(=O)(=O)c1ccc(C(=O)Nc2ccc(Cl)cc2C(=O)O)cc1N.Cl [PNU-283603A]	16 µg/mL	–
Nc1cc(C(=O)Nc2ccc(Cl)cc2C(=O)O)ccc1S(=O)(=O)N1CCc2ccccc21 [PNU-290881A]	4 µg/mL (≈ 8.48 µM)	–
O=C(Nc1ccc(Cl)cc1C(=O)O)c1cccc(C(=O)c2ccccc2)c1 [drawing 1011]	4 µg/mL (≈ 10.5 µM)	–
O=C(Nc1ccc(Cl)cc1C(=O)O)c1ccc(C(=O)C2CCCC2)cc1 [drawing 1027]	–	8 µg/mL
O=C(Nc1ccc(Br)cc1C(=O)O)c1cccc(C(=NO)c2ccccc2)c1 [drawing 1035]	0.5 µg/mL (≈ 1.14 µM)	–
O=C(Nc1ccc(Br)cc1C(=O)O)c1cccc(OCc2ccccc2)c1 [drawing 1037]	4 µg/mL (≈ 9.38 µM)	–
CCCC(Oc1ccc(C(=O)Nc2ccc(Br)cc2C(=O)O)cc1)C(=O)OCC (stereo not drawn) [drawing 1052]	–	64 µg/mL
O=C(Nc1ccc(Cl)cc1C(=O)O)c1cccc(C(=NO)c2ccco2)c1 [drawing 1086]	–	2 µg/mL
CCCC(Oc1ccc(C(=O)Nc2ccc(Br)cc2C(=O)O)cc1)C(=O)OCC (stereo not drawn) [drawing 1091]	64 µg/mL (≈ 138 µM)	–
C=CCON=C(c1ccc(C(=O)Nc2ccc(Cl)cc2C(=O)O)cc1)c1ccco1 [drawing 1095]	32 µg/mL (≈ 75.3 µM)	–
O=C(Nc1ccc(Cl)cc1C(=O)O)c1ccc(C(=O)C2CCCC2)cc1 [drawing 1111]	4 µg/mL (≈ 10.8 µM)	–
O=C(Nc1ccc(Cl)cc1C(=O)O)c1cccc(C(=NO)c2ccco2)c1 [drawing 1121]	–	8 µg/mL
C=CCON=C(c1ccc(C(=O)Nc2ccc(Cl)cc2C(=O)O)cc1)c1ccco1 [drawing 1123]	–	64 µg/mL
Cc1ccc(C(=O)Nc2ccc(Br)cc2C(=O)O)cc1S(=O)(=O)N(C)c1ccc(Cl)cc1 [drawing 1134]	–	1 µg/mL

Further lines, results first:

MIC	SA 9218 MIC	SMILES
4 µg/mL (≈ 7.7 µM)	–	O=C(O)c1ccc(NS(=O)(=O)c2ccc(C(=O)Nc3ccc(Br)cc3C(=O)O)cc2)cc1 [PNU-276817]
16 µg/mL (≈ 30.5 µM)	–	CN(c1ccc(Cl)cc1)S(=O)(=O)c1ccc(C(=O)Nc2ccc(Br)cc2C(=O)O)cc1 [PNU-276988]
1 µg/mL (≈ 2.21 µM)	–	CCCN(CCC)Sc1ccc(C(=O)Nc2ccc(Cl)cc2C(=O)O)cc1[N+](=O)[O-] [PNU-277231]
> 128 µg/mL	–	O=C(Nc1ccc(I)cc1C(=O)O)c1ccc(F)cc1 [PNU-281164]
32 µg/mL (≈ 68.6 µM)	–	O=C(Nc1ccc(Br)cc1C(=O)O)c1ccc(S(=O)(=O)Nc2nc[nH]n2)cc1 [PNU-282859]
1 µg/mL (≈ 1.91 µM)	–	CN(c1ccc(Cl)cc1)S(=O)(=O)c1cccc(C(=O)Nc2ccc(Br)cc2C(=O)O)c1 [PNU-283076]
0.125 µg/mL (≈ 0.25 µM)	–	O=C(Nc1ccc(Br)cc1C(=O)O)c1ccc(S(=O)(=O)n2ccc3ccccc32)cc1 [PNU-283318]
4 µg/mL (≈ 7.99 µM)	–	O=C(Nc1ccc(Br)cc1C(=O)O)c1ccc(S(=O)(=O)n2cnc3ccccc32)cc1 [PNU-283371]
1 µg/mL (≈ 1.99 µM)	–	O=C(Nc1ccc(Cl)cc1C(=O)O)c1ccc(S(=O)(=O)N2CCc3ccccc32)c([N+](=O)[O-])c1 [PNU-283599]
4 µg/mL (≈ 9.03 µM)	–	O=C(Nc1ccc(Cl)cc1C(=O)O)c1ccc(SCc2ccccc2)c([N+](=O)[O-])c1 [PNU-283604]
0.25 µg/mL (≈ 0.467 µM)	–	O=C(Nc1ccc(Br)cc1C(=O)O)c1cccc(S(=O)(=O)N2CCc3cc(Cl)ccc32)c1 [PNU-288969]
8 µg/mL (≈ 14.4 µM)	–	COc1ccc(S(=O)(=O)N(C)c2ccc(Cl)cc2)cc1C(=O)Nc1ccc(Br)cc1C(=O)O [PNU-289815]
64 µg/mL (≈ 119 µM)	–	Cc1ccc(S(=O)(=O)N(C)c2ccc(Cl)cc2)cc1C(=O)Nc1ccc(Br)cc1C(=O)O [PNU-290821]
> 128 µg/mL	–	O=C(Nc1ccc(Br)cc1C(=O)O)c1ccc(NC(=O)N2CCc3ccccc32)cc1 [PNU-290877, 5-Bromo-2-({4-[(2,3-dihydro-1H-indol-1-ylcarbonyl)amino]benzoyl}amino)benzoic acid]
1 µg/mL (≈ 2.1 µM)	–	O=C(Nc1ccc(Cl)cc1C(=O)O)c1ccc(SCc2ccccc2)c(Br)c1 [PNU-290882]
1 µg/mL (≈ 1.87 µM)	–	O=C(Nc1ccc(Br)cc1C(=O)O)c1ccc(S(=O)(=O)n2ccc3cc(Cl)ccc32)cc1 [PNU-290905]
1 µg/mL (≈ 1.87 µM)	–	O=C(Nc1ccc(Br)cc1C(=O)O)c1ccc(S(=O)(=O)n2ccc3ccc(Cl)cc32)cc1 [PNU-290906]
1 µg/mL (≈ 1.81 µM)	–	O=C(Nc1ccc(Br)cc1C(=O)O)c1ccc(S(=O)(=O)n2ccc3cc(F)c(Cl)cc32)cc1 [PNU-291010]

MIC	SA 9218 MIC	SMILES
0.25 µg/mL (≈ 0.483 µM)	–	O=C(Nc1ccc(Br)cc1C(=O)O)c1ccc(S(=O)(=O)n2ccc3ccc(F)cc32)cc1 [PNU-291011]
16 µg/mL (≈ 26.5 µM)	–	CN(c1ccc(Cl)cc1)S(=O)(=O)c1ccc(Br)c(C(=O)Nc2ccc(Br)cc2C(=O)O)c1 [PNU-291061]
0.5 µg/mL (≈ 0.966 µM)	–	O=C(Nc1ccc(Br)cc1C(=O)O)c1ccc(S(=O)(=O)n2ccc3cc(F)ccc32)cc1 [PNU-291129]
4 µg/mL (≈ 8.9 µM)	–	O=C(Nc1ccc(Br)cc1C(=O)O)c1ccc(S(=O)(=O)n2cccc2)cc1 [PNU-291130]
–	32 µg/mL	COc1ccc(C(=O)Nc2ccc(Cl)cc2C(=O)O)cc1[N+](=O)[O-] [PNU-291408]
4 µg/mL (≈ 7.72 µM)	–	CCCN(CCC)S(=O)(=O)c1ccc(C(=O)Nc2ccc(Cl)cc2C(=O)O)cc1Br [PNU-291410]
2 µg/mL (≈ 3.78 µM)	–	COc1ccc2c(ccn2S(=O)(=O)c2ccc(C(=O)Nc3ccc(Br)cc3C(=O)O)cc2)c1 [PNU-291517]
8 µg/mL (≈ 14.4 µM)	–	COc1ccc(C(=O)Nc2ccc(Br)cc2C(=O)O)cc1S(=O)(=O)N(C)c1ccc(Cl)cc1 [PNU-291570]
0.5 µg/mL (≈ 0.93 µM)	–	Cc1ccc(C(=O)Nc2ccc(Br)cc2C(=O)O)cc1S(=O)(=O)N(C)c1ccc(Cl)cc1 [PNU-291571]
1 µg/mL (≈ 1.66 µM)	–	CN(c1ccc(Cl)cc1)S(=O)(=O)c1cc(C(=O)Nc2ccc(Br)cc2C(=O)O)ccc1Br [PNU-291679]
1 µg/mL (≈ 2.04 µM)	–	O=C(Nc1ccc(Br)cc1C(=O)O)c1ccc(S(=O)(=O)Nc2ccccc2O)cc1 [PNU-291997]
–	2 µg/mL	COc1ccc(C(=O)Nc2ccc(Cl)cc2C(=O)O)cc1[N+](=O)[O-] [PNU-292070]
0.5 µg/mL (≈ 1.02 µM)	–	CN(c1ccc(Cl)cc1)S(=O)(=O)c1cccc(C(=O)Nc2ccc([N+](=O)[O-])cc2C(=O)O)c1 [PNU-292379]
128 µg/mL (≈ 275 µM)	–	O=C(Nc1ccc(Br)cc1C(=O)O)c1ccc(C(=O)N2CCc3ccccc32)cc1 [PNU-292577]
16 µg/mL (≈ 32.7 µM)	–	CN(c1ccc(Cl)cc1)S(=O)(=O)c1ccc(C(=O)Nc2ccc([N+](=O)[O-])cc2C(=O)O)cc1 [PNU-293032]
4 µg/mL (≈ 9.04 µM)	–	O=C(Nc1ccc(Br)cc1C(=O)O)c1cccc(SCc2ccccc2)c1 [PNU-293049]
32 µg/mL (≈ 52.6 µM)	–	CN(c1ccc(Cl)cc1)S(=O)(=O)c1cc(C(=O)Nc2ccc(Br)cc2C(=O)O)ccc1N1CCOCC1 [PNU-293795]
8 µg/mL (≈ 15.2 µM)	–	N#Cc1ccc(C(=O)Nc2ccc(Br)cc2C(=O)O)cc1S(=O)(=O)N1CCc2ccccc21 [PNU-293905]
